The text below walks through data of patent US9592223B2, “Small molecule inhibitors of MALT1” (Cornell University, priority 2012, dated 2017).

Test [1] concerns HBL-1, TMD8 and OCI-Ly10. The test is described as follows: CFSE dilution assay by flow cytometry, ABC-DLBCL lines. The format is cell-based, human. The conditions noted are these: viable cells at 48, 72 and 96 h. As for the experimental part:
Cell proliferation was examined using the CFSE dilution assay by flow cytometry on viable cells at 48, 72 and 96 h. […] Trypan blue exclusion and apoptosis assessed by Annexin V^+ DAPI^− flow cytometry was measured every 48 hr for a period of 14 days.
CFSE covalently labels long-lived intracellular molecules with carboxyfluorescein. Following each cell division, fluorescent molecules dilute in daughter cells, allowing comparative study of the kinetics of cell division. Cells were stained with DAPI (Sigma), followed by flow cytometry. DAPI^neg cells were gated for analysis.

For test [2], the system named is nuclear c-REL and p65. The test is described as follows: Western blots for c-REL and p65 in nuclear extracts of HBL-1 and TMD8 cells. Type of test: cell-based, human. The note with it: 24 hr, 200 nM for HBL-1 and 500 nM for TMD8. As for the experimental part: MALT1 mediates c-REL translocation to the nucleus following BCR stimulation (Ferch et al., 2007). […] This selectivity towards c-REL had also been previously shown in MALT1 knockout mice and after MALT1 cleavage inhibition by the MALT1 blocking peptide Z-VRPR-FMK (Ferch et al., 2009; Ferch et al., 2007; Hailfinger et al., 2011).
Equal amounts of total protein (20-75 μg) were separated on sodium dodecyl sulfate-polyacrylamide gel electrophoresis (SDS-PAGE), and electrotransferred onto nitrocellulose membranes. Membranes were incubated with primary antibodies (MALT1, BCL-10, CYLD from Santa Cruz Biotechnologies, Santa Cruz, Calif.; A20 from eBioscience, San Diego, Calif.; phospho-IκB-α, IκB-α, c-REL, RELB from Cell Signaling, Danvers, Mass. and α-Tubulin from Sigma), followed by secondary antibodies conjugated to horseradish peroxidase, which were detected by chemiluminescence (Pierce, Thermo Scientific, Rockford, Ill.).
Background: A western blot detects proteins with antibodies after separation by electrophoresis.

In test [3] the target is T1, MALT1 active site mutant C464A (Homo sapiens, UniProt Q9UDY8, C464A).
T1 construct: MALT1 paracaspase domain (329-728) presented a major peak at 55,988.4 Da
T1 sequence (Q9UDY8 329-728 C464A): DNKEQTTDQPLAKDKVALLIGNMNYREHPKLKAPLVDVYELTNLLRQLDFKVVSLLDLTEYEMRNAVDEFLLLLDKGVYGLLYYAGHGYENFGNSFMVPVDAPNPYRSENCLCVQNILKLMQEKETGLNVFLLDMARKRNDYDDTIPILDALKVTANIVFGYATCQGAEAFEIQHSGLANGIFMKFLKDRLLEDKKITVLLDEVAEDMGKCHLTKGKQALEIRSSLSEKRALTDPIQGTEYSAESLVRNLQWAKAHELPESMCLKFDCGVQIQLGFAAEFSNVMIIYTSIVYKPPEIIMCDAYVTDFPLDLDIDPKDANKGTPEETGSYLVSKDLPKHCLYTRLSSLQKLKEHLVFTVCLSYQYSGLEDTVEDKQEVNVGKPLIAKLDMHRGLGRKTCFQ
The test can be described thus: LC-MS covalent modification, active site mutant. Type of test: binding. As for the experimental part:
The final results were ranked on the predicted binding free energy and the cluster size for each docking conformation.
HPLC/ESI-MS experiments were carried out on 5 μl sample at 1 mg/ml protein concentration. Separation of proteins was performed on a HP 1100 system (Hewlett Packard, Palo Alto, Calif., USA) employing a 1 mm×150 mm LC Packings column packed with POROS R1/H (Perseptive Biosystems, Foster City, Calif., USA). The column was kept at 80° C. Samples were injected onto the column using a CTC PAL autosampler (CTC, Zwingen Switzerland) fitted with a Valco model C6UW HPLC valve (Valco, Houston, Tex., USA) and a 10 μl injection loop. HPLC was controlled by MassLynx software (Micromass, Manchester, UK). UV detection was performed at 214 nm. Eluent A was water containing 0.05% TFA. Eluent B was a 1:9 mixture of water:acetonitrile containing 0.045% TFA. A gradient from 20% B to 90% B was run in 20 minutes. The flow rate was typically 60 μl/min. The total flow from the LC system was introduced into the UV detection cell prior to introduction in the ESI source. The HPLC system was controlled and the signal from the UV detector was processed using MassLynx software. […] Data were recorded and processed using MassLynx software. […]

Turning to `COCCOc1nc(-c2ccc(Cl)c(Cl)c2)n(-c2ccc(NC(=O)CCl)cc2)n1` [MI-2], in test [1], the “cell proliferation (CFSE dilution)” value is reported as “substantially inhibited proliferation”. Besides, in test [2], the “nuclear c-REL (Western blot)” value is “clear reduction of nuclear c-REL” and the “nuclear p65 (Western blot)” value was “did not affect p65 levels”. Also, the “covalent binding to MALT1 C464A” value in test [3] is “markedly reduced covalent binding”.
